Laboratory results: paper PMC11855827, “High-Throughput Screening of Five Compound Libraries for Anthelmintic Activity and Toxicity Leads to the Discovery of Two Flavonoid Compounds” (International Journal of Molecular Sciences, 2025)

Tested on: C. elegans
Details: Table S2, C. elegans SS assay, 110 μM, averages of 4 data points

Ginkgolide B
Percentage of motility inhibition 0 h: 4%
Percentage of motility inhibition 24 h: 7%

COc1ccnc2[nH]cc(C(=O)C(=O)N3CCN(C(=O)c4ccccc4)C[C@H]3C)c12 [BMS‐378806]
Percentage of motility inhibition 0 h: 47%
Percentage of motility inhibition 24 h: 41%

(‐)‐Epicatechin gallate
Percentage of motility inhibition 0 h: 5%
Percentage of motility inhibition 24 h: 8%

COc1ccc2c(c1OC)C(OC)N(C)c1c-2ccc2cc3c(cc12)OCO3 (centres unmarked) [Angoline]
Percentage of motility inhibition 0 h: 0%
Percentage of motility inhibition 24 h: 0%

C[C@@H](O)[C@H]1C(=O)N2C(C(=O)O)=C(S[C@@H]3CN[C@H](C(=O)N(C)C)C3)[C@H](C)[C@H]12.O.O.O [Meropenem (trihydrate)]
Percentage of motility inhibition 0 h: 12%
Percentage of motility inhibition 24 h: 9%

Teicoplanin
Percentage of motility inhibition 0 h: 3%
Percentage of motility inhibition 24 h: 9%

C=C[C@H]1[C@H](O[C@@H]2O[C@H](CO)[C@@H](O)[C@H](O)[C@H]2O)OC=C(C(=O)OC)[C@H]1C[C@@H]1c2cc(O)c(O)cc2CCN1C(C)=O [Ipecoside]
Percentage of motility inhibition 0 h: 0%
Percentage of motility inhibition 24 h: 14%

C=C(C)C(=O)O[C@H]1[C@@H]2[C@H](C)C(=O)O[C@@H]2C[C@@H](C)[C@@H]2C=CC(=O)[C@]21C [Arnicolide D]
Percentage of motility inhibition 0 h: 16%
Percentage of motility inhibition 24 h: 25%

CC1(C)C[C@@H](O)[C@]2(C)CC[C@]3(C)C(=CC[C@@H]4[C@@]5(C)CC[C@H](O[C@@H]6O[C@H](C(=O)O)[C@@H](O)[C@H](O)[C@H]6O[C@@H]6O[C@H](CO)[C@H](O)[C@H](O)[C@H]6O[C@@H]6O[C@H](CO)[C@@H](O)[C@H](O)[C@H]6O)[C@](C)(CO)[C@@H]5CC[C@]43C)[C@@H]2C1 [Soyasaponin Ba]
Percentage of motility inhibition 0 h: 0%
Percentage of motility inhibition 24 h: 25%

COc1cc(-c2oc3cc(OC)c(OC)c(O)c3c(=O)c2OC)ccc1O [Chrysosplenetin]
Percentage of motility inhibition 0 h: 17%
Percentage of motility inhibition 24 h: 6%

CC1(C)CC[C@]2(C(=O)O)CC[C@]3(C)C(=CC[C@@H]4[C@@]5(C)CC[C@@H](O)C(C)(C)[C@@H]5CC[C@]43C)[C@@H]2C1 [3-Epioleanolic acid]
Percentage of motility inhibition 0 h: 29%
Percentage of motility inhibition 24 h: 34%

c1cn[nH]c1 [1H‐pyrazole]
Percentage of motility inhibition 0 h: 0%
Percentage of motility inhibition 24 h: 21%

Cc1ccc2nc(C)ccc2c1 [2,6‐Dimethylquinoline]
Percentage of motility inhibition 0 h: 0%
Percentage of motility inhibition 24 h: 6%

O=C[C@H](O)[C@@H](O)[C@H](O)CO (racemic) [DL-Xylose]
Percentage of motility inhibition 0 h: 0%
Percentage of motility inhibition 24 h: 5%

C[C@@H]1O[C@@H](Oc2cc(O)c3c(c2)O[C@H](c2ccc(O)c(O)c2)[C@@H](O)C3=O)[C@H](O)[C@H](O)[C@H]1O [Taxifolin 7‐O‐rhamnoside]
Percentage of motility inhibition 0 h: 33%
Percentage of motility inhibition 24 h: 12%

CC1(C)S[C@@H]2[C@H](NC(=O)[C@H](NC(=O)N3CCN(S(C)(=O)=O)C3=O)c3ccccc3)C(=O)N2[C@H]1C(=O)[O-].[Na+] [Mezlocillin (sodium)]
Percentage of motility inhibition 0 h: 0%
Percentage of motility inhibition 24 h: 4%

COc1cc(C(=O)OCCCCN=C(N)N)cc(OC)c1O.Cl [Leonurine (hydrochloride)]
Percentage of motility inhibition 0 h: 0%
Percentage of motility inhibition 24 h: 0%

CC(C)(C)OC(=O)N1CCC[C@H]1c1nc(C(=O)O)cs1 [Antibiotic‐5d]
Percentage of motility inhibition 0 h: 0%
Percentage of motility inhibition 24 h: 0%

C[C@H]1[C@H](C)CC[C@]2(C)CC[C@]3(C)C(=CC(=O)[C@@H]4[C@@]5(C)CC[C@@H](O)[C@](C)(C(=O)O)[C@@H]5CC[C@]43C)[C@H]12 [11-Keto-beta-boswellic acid]
Percentage of motility inhibition 0 h: 2%
Percentage of motility inhibition 24 h: 0%

C[C@H](CC[C@@H](O[C@@H]1O[C@H](CO)[C@@H](O)[C@H](O)[C@H]1O[C@@H]1O[C@H](CO)[C@@H](O)[C@H](O)[C@H]1O)C(C)(C)O)[C@H]1CC[C@@]2(C)[C@H]3CC=C4[C@@H](CC[C@H](O[C@@H]5O[C@H](CO[C@@H]6O[C@H](CO)[C@@H](O)[C@H](O)[C@H]6O)[C@@H](O)[C@H](O)[C@H]5O)C4(C)C)[C@]3(C)[C@H](O)C[C@]12C [Mogroside IV-E]
Percentage of motility inhibition 0 h: 4%
Percentage of motility inhibition 24 h: 6%

C=C(C)[C@@H]1CC[C@]2(C)CC[C@]3(C)[C@H](CC[C@@H]4[C@@]5(C)CC[C@H](OC(C)=O)C(C)(C)[C@@H]5CC[C@]43C)[C@@H]12 [Lupeol acetate]
Percentage of motility inhibition 0 h: 0%
Percentage of motility inhibition 24 h: 0%

O=C1C=C2C=C[C@@H]3C[C@@]2(O1)[C@@H]1CCCCN31 [Allosecurinine]
Percentage of motility inhibition 0 h: 23%
Percentage of motility inhibition 24 h: 29%

COc1ccc(-c2cc(=O)c3c(O)cc(O)c(-c4cc(-c5cc(=O)c6c(O)cc(OC)cc6o5)ccc4OC)c3o2)cc1 [Sciadopitysin]
Percentage of motility inhibition 0 h: 0%
Percentage of motility inhibition 24 h: 21%

Isoliquiritin apioside
Percentage of motility inhibition 0 h: 47%
Percentage of motility inhibition 24 h: 8%

CO/N=C(\C(=O)N[C@@H]1C(=O)N2C(C(=O)[O-])=C(C[n+]3ccn4ncccc43)CS[C@H]12)c1nsc(N)n1.Cl [Cefozopran (hydrochloride)]
Percentage of motility inhibition 0 h: 10%
Percentage of motility inhibition 24 h: 12%

CC(C)=CCC[C@@](C)(O)[C@H]1CC[C@]2(C)[C@@H]1[C@H](O)C[C@@H]1[C@@]3(C)CC[C@H](O)C(C)(C)[C@@H]3[C@@H](O[C@@H]3O[C@H](CO)[C@@H](O)[C@H](O)[C@H]3O)C[C@]12C [(20R)-Ginsenoside Rh1]
Percentage of motility inhibition 0 h: 13%
Percentage of motility inhibition 24 h: 5%

C/C1=C2/[N-][C@H]([C@H](CC(N)=O)[C@@]2(C)CCC(=O)NC[C@@H](C)OP(=O)([O-])O[C@H]2[C@@H](O)[C@@H](n3cnc4cc(C)c(C)cc43)O[C@@H]2CO)[C@]2(C)N=C(/C(C)=C3N=C(/C=C4N=C1[C@@H](CCC(N)=O)C\4(C)C)[C@@H](CCC(N)=O)[C@]\3(C)CC(N)=O)[C@@H](CCC(N)=O)[C@]2(C)CC(N)=O.[CH2-][C@H]1O[C@@H](n2cnc3c(N)ncnc32)[C@H](O)[C@@H]1O.[Co] [Adenosylcobalamin]
Percentage of motility inhibition 0 h: 20%
Percentage of motility inhibition 24 h: 22%

Bacopaside II
Percentage of motility inhibition 0 h: 7%
Percentage of motility inhibition 24 h: 9%
